The nature of data set [1]: Inhibition of colony formation in mouse acute promyelocytic leukemic cell at 0.25 uM after 7 days by colony forming unit assay. Type of data set: functional. The note with it: 168 h.
Data set [2] concerns the target T1, Amine oxidase [flavin-containing] B (Homo sapiens, UniProt P27338).
T1 sequence (P27338 whole entry): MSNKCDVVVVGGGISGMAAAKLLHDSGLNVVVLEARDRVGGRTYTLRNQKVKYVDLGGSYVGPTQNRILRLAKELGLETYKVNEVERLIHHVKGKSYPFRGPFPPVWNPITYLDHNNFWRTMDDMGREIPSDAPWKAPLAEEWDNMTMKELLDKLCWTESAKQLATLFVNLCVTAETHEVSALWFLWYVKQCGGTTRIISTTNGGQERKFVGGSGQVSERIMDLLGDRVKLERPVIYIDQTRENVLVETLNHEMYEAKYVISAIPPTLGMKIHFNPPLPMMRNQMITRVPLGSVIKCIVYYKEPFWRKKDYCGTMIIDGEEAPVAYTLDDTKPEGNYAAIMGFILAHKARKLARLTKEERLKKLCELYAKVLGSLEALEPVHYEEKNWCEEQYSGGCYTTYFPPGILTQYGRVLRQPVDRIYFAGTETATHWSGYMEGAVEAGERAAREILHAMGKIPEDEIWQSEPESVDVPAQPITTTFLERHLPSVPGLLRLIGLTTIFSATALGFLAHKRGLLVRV
In words: Inhibition of human recombinant MAOB expressed in Pichia pastoris incubated for 15 mins prior to substrate addition measured after 30 mins by luminescence assay.

For data set [3], the target named is T2, MAO-B (amine oxidase [flavin-containing] B) (Homo sapiens, UniProt P27338).
T2 sequence (P27338 whole entry): T1 sequence (P27338 whole entry)
In words: Inhibition of human recombinant MAOB expressed in Pichia pastoris at 100 uM incubated for 15 mins prior to substrate addition measured after 30 mins by luminescence assay.

Data set [4] in a line: Induction of cell differentiation in mouse acute promyelocytic leukemic cells. The class given is functional.
Data set [5] is described as follows: Induction of cell differentiation in human NB4 cells assessed as upregulation of CD11B expression. The note with it: NB-4. Type of data set: functional, cell-based.

In general, inhibition refers to the relative decrease from the control value, in per cent. For orientation: IC50 means the concentration needed to halve the response being measured.

In data set [1], `N[C@@H]1C[C@H]1c1ccc(NC(=O)[C@H](Cc2ccccc2)NC(=O)OCc2ccccc2)cc1` came in with an inhibition at 0.25 µM of 59.2%. Besides, in data set [2], the IC50 was 32 µM.

In data set [1], `N[C@@H]1C[C@H]1c1ccc(NC(=O)[C@@H](Cc2ccccc2)NC(=O)OCc2ccccc2)cc1` showed an inhibition at 0.25 µM of 59.6%. In addition, the inhibition at 0.5 h, 100 µM in data set [3] stood at 33%.

In the case of `N[C@H]1C[C@@H]1c1ccc(NC(=O)[C@@H](Cc2ccccc2)NC(=O)OCc2ccccc2)cc1`, the inhibition at 0.5 h, 100 µM in data set [3] worked out at 14%.

The compound `Cl.NC1CC1c1ccc(NC(=O)C(Cc2ccccc2)NC(=O)OCc2ccccc2)cc1` (mixture of isomers) returned an inhibition at 0.25 µM in data set [1] of 36.8%. Moreover, the Activity in data set [4] and in data set [5] was 77.9% throughout. The inhibition at 0.5 h, 100 µM in data set [3] is 40%.

Turning to `N[C@H]1C[C@@H]1c1ccc(NC(=O)[C@H](Cc2ccccc2)NC(=O)OCc2ccccc2)cc1`, the IC50 in data set [2] came to 42.6 µM.

For the origin of these results see ChEMBL document CHEMBL3421542, “Pure Diastereomers of a Tranylcypromine-Based LSD1 Inhibitor: Enzyme Selectivity and In-Cell Studies” (ACS Med Chem Lett, 2015).
